≈ marks a conversion by molar mass, not a printed value. Read-outs that look alike come from different tables or passages of the source.
How the values were obtained:
SAE1 = SAE1 (Homo sapiens (Human), UniProt Q9UBE0+Q9UBT2); assay: SAE High Throughput Biochemical Assay (HTRF), 15 min preincubation; conditions: read-out: 15 min preincubation HTRF IC50 (μM) Ave, SAE1 12.5 nM, ATP 100 μM
Outline: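 HTRF detection of SUMO transfer from SUMO-GST to UBC9-His (40 nM each) by SAE1 at 12.5 nM used 100 μM ATP in pH 7.5 HEPES buffer with 10 mM MgCl2 and 0.1% BSA. Enzyme and compound were preincubated 15 min at RT and the reaction ran 45 min, with readings after 2 h and overnight.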

[1] = Plasma protein binding, equilibrium dialysis, mouse plasma; type: in vitro ADME; conditions: 5 hours at 37° C., read-out: PPB % bound Mouse (converted)
Method: (§1) The compounds of interest were evaluated for various PK parameters. Specifically CACO permeability/efflux and plasma protein binding (PPP) were determined. Stock solutions were prepared at 10 mM in DMSO for test and reference compounds. Aliquots of the stock solution were diluted to 500× of final concentration (0.5 mM) with DMSO, then further diluted upon the addition of bank PE3-buffer to 20× of final concentration (20 μM). Then test and reference compounds were prepared in plasma at 1 μM. For 0 hour incubation: 25 μL of the plasma spiked with test and reference compounds was transferred into a 96-well sample preparation plate, and then 25 μL blank PB-buffer was added. The samples were quenched by 200 μL of IS solution to prepare [Initial]0h samples. For 5 hours incubation: 100 μL of the plasma spiking with test and reference compounds was loaded on donor side, and 100 μL of blank PB-buffer were loaded on receiver side of the equilibrium dialysis device. Samples were incubated in an air-bath shaker (60 rpm) for 5 hours at 37° C. After 5 hours incubation, 25 μL of samples (from both the donor sides and receiver sides of the dialysis apparatus) was aspirated and added into new sample preparation plates, separately. 25 μL of blank PB-buffer was added to donor side samples and 25 μL of blank plasma was added to receiver side samples to balance the matrix. The samples were quenched with 200 μL of IS solution. The assay plate was shaken at the vibrator (Hangzhou Allsheng, MX100-4A) for 10 min (600 rpm) and then centrifuged at 5,594×g for 15 min (Thermo Multifuge×3R). An aliquot of the 50 μL supernatant was taken from each well and diluted by 50 μL distilled water, then analyzed by UPLC-MS/MS.

[2] = Plasma protein binding, equilibrium dialysis, rat plasma; type: in vitro ADME; conditions: 5 hours at 37° C., read-out: PPB % bound Rat (converted)
Method: as §1

[3] = Plasma protein binding, equilibrium dialysis, human plasma; type: in vitro ADME; conditions: 5 hours at 37° C., read-out: PPB % bound Human (converted)
Method: as §1

[4] = Plasma protein binding, equilibrium dialysis, dog plasma; type: in vitro ADME; conditions: 5 hours at 37° C., read-out: PPB % bound Dog (converted)
Method: as §1

[5] = Plasma protein binding, equilibrium dialysis, monkey plasma; type: in vitro ADME; conditions: 5 hours at 37° C., read-out: PPB % bound Monkey (converted)
Method: as §1

[6] = Caco-2 permeability/efflux; type: in vitro ADME; conditions: human, Caco-2, pH 7.4; B-A / A-B
Method: (§2) Caco-2 cells were obtained from American Tissue Culture Collection (Rockville, MD). The cells were maintained in Modified Eagle's medium (MEM), containing 10% heat-inactivated fetal bovine serum (FBS), and 1% non-essential amino acids, in CO2 at 37° C. Cells were seeded on polycarbonate filter inserts (Millipore, CAT #PSHT 010 R5). The cells were cultured for 21-28 days prior to the permeability experiments. The Lucifer Yellow permeability was checked before and after the assay. Compounds were dissolved at 10 mM in 100% dimethyl sulfoxide (DMSO) and diluted for studies in Hanks Balanced Salt Solution (HBSS, Invitrogen, Cat #14025-092) with 25 mM HEPES, pH 7.4. Compounds were tested at 10 µM in both the apical-to-basolateral (A-B) and basolateral-to-apical (B-A) directions, incubations were conducted at 37° C. for 90 min. At the end of incubation, samples were diluted by assay buffer, and analyzed by LC-MS/MS. The concentrations of the compounds were quantified by standard curve. The first comparator example (Comp. Ex. 1) is the chloro substituted thienodihydropyridine

Caco-2 cells = assay: Caco-2 permeability/efflux; type: in vitro ADME; conditions: 10 uM, 37° C., 90 min, pH 7.4
Method: as §2

Solubility Evaluation = type: physicochemical; conditions: kinetic from dmso stock, 1 hour at RT
Method: The compounds of interest were evaluated for their solubility in various biological solutions. Specifically, aliquots (8 μL) of reference and test compound stock solutions (10 mM) were added into 792 μL of buffer (PBS, pH7.4, FaSSIF, pH 6.5, or FaSSGF, pH 1.6) respectively (Final DMSO conc.: 1%). Sample tubes were shaken for 1 hour (1000 rpm) at RT. The experiment was calibrated using 300 μM spiked solution (SS) in MeOH/CAN (4:1) by adding 6 μL of 10 mM compound stock solution in 194 μL MeOH/ACN(4:1) ranging from 60 μM to 0.02 μM. The samples were centrifuged (10 min-12000 rpm) to precipitate un-dissolved particles. The supernatants were transferred to a new tube or plate. Supernatants were diluted 10 times and 100 times with 100 mM buffer then analyzed by LC-MS/MS. SGF=simulated gastric fluid, SIF=simulated intestinal fluid, PBS=phosphate buffered saline pH 7.4 Values are noted in μM.

[7] = PBS (phosphate buffered saline), aqueous buffer, phosphate buffered saline pH 7.4, 1% DMSO, read-out: Solubilities PBS
[8] = simulated intestinal fluid (FaSSIF, pH 6.5), 1% DMSO, read-out: Solubilities SIF

Sequence of SAE1 (Q9UBE0 whole entry): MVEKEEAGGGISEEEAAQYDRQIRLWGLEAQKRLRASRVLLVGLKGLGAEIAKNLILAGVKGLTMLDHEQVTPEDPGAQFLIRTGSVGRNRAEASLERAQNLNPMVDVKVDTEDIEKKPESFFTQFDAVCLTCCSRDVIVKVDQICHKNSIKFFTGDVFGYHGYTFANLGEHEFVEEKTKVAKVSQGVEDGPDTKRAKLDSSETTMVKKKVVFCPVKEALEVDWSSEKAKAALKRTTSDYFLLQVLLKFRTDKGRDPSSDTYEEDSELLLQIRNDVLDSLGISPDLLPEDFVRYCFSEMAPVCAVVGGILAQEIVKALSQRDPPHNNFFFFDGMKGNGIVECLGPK
Sequence of SAE1 (Q9UBT2 whole entry): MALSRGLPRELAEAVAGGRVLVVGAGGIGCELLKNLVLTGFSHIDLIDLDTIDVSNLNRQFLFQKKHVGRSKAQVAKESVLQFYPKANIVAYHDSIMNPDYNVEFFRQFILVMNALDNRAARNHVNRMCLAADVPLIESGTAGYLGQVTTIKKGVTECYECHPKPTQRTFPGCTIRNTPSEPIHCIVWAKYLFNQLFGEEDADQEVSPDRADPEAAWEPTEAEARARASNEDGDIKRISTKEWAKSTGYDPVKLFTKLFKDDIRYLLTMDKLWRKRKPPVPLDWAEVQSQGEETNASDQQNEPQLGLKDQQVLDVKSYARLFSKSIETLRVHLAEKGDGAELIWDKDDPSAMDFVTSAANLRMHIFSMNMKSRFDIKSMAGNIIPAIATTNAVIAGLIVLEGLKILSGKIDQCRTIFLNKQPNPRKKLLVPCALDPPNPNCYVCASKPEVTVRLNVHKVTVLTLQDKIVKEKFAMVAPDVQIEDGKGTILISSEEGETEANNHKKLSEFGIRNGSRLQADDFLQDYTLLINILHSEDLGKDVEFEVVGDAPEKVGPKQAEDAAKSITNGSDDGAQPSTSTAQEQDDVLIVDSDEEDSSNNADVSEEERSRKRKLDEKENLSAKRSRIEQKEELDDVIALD

| SMILES | IC50 (SAE1) | fraction unbound at 5 h, 1 μM [1] | fraction unbound at 5 h, 1 μM [2] | fraction unbound at 5 h, 1 μM [3] | fraction unbound at 5 h, 1 μM [4] | fraction unbound at 5 h, 1 μM [5] | efflux ratio at 90 min, 10 μM [6] | Caco-2 apparent permeability (Papp) (Caco-2 cells; apical-to-basolateral) | Caco-2 apparent permeability (Papp) (Caco-2 cells; basolateral-to-apical) | solubility at 1 h (Solubility Evaluation; [7]) | solubility at 1 h (Solubility Evaluation; [8]) |
| --- | --- | --- | --- | --- | --- | --- | --- | --- | --- | --- | --- |
| C=CC(=O)N1Cc2sc(C#N)c(C)c2[C@H](c2cccc(F)c2-c2cn(CC)nc2C(F)(F)F)C1 [Compound 222] | 0.1 µM | 0.005 | 0.004 | 0.008 | 0.001 | 0.009 | 1 | 3.4 10^-6 cm/s | 4.1 10^-6 cm/s | 41 µM (≈ 20 µg/mL) | 29 µM (≈ 14.2 µg/mL) |
| CCn1cc(-c2c(F)cccc2[C@@H]2CN(C(=O)/C=C/CN(C)C)Cc3sc(C#N)c(C)c32)c(C(F)(F)F)n1 [Example 46, (S, E)-6-(4-(dimethylamino)but-2-enoyl)-4-(2-(1-ethyl-3-(trifluoromethyl)-1 H-pyrazol-4-yl)-3-fluorophenyl)-3-methyl-4,5,6,7-tetrahydrothieno[2,3-c]pyridine-2-carbonitrile] | 0.2 µM | 0.013 | 0.021 | 0.028 | 0.008 | 0.047 | 1 | 12.7 10^-6 cm/s | 11.6 10^-6 cm/s | 97 µM (≈ 52.9 µg/mL) | > 100 µM |
| CCn1cc(-c2c(F)cccc2[C@@H]2CN(C(=O)/C=C/CNC)Cc3sc(C#N)cc32)c(C(F)(F)F)n1 [Example 50] | 0.51 µM | 0.039 | 0.062 | 0.033 | 0.02 | 0.064 | 6 | 4 10^-6 cm/s | 21 10^-6 cm/s | 30 µM (≈ 15.5 µg/mL) | 28 µM (≈ 14.5 µg/mL) |
